Inhibition data for two compounds are collected here from ChEMBL document CHEMBL4385643, “Design of a brain-penetrant CDK4/6 inhibitor for glioblastoma” (Bioorg Med Chem Lett, 2019).

For test [1], the target named is Cyclin-dependent kinase 14/Cyclin-Y (Homo sapiens) (UniProt O94921+Q8ND76). Nature of the test: Inhibition of tracer 236 binding to recombinant human GST-tagged CDK14/cyclin Y catalytic domain (CDK14: full length, Cyclin Y: 2 to end) expressed by baculovirus in Sf9 insect cells expression system at 0.1 uM measured after 60 mins by Lanthascreen assay relative to control. (TR-FRET usually uses a lanthanide donor and a delayed reading to cut background.)

For test [2], the target named is G protein-coupled receptor kinase 5 (Homo sapiens) (UniProt P34947). In words: Inhibition of recombinant full length human GST-tagged GRK5 expressed in baculovirus expression system at 0.1 uM using serine/threonine-16 peptide as substrate incubated for 60 mins by Z'-LYTE assay relative to control.
G protein-coupled receptor kinase 5 (Homo sapiens), sequence (P34947 whole entry, looked up): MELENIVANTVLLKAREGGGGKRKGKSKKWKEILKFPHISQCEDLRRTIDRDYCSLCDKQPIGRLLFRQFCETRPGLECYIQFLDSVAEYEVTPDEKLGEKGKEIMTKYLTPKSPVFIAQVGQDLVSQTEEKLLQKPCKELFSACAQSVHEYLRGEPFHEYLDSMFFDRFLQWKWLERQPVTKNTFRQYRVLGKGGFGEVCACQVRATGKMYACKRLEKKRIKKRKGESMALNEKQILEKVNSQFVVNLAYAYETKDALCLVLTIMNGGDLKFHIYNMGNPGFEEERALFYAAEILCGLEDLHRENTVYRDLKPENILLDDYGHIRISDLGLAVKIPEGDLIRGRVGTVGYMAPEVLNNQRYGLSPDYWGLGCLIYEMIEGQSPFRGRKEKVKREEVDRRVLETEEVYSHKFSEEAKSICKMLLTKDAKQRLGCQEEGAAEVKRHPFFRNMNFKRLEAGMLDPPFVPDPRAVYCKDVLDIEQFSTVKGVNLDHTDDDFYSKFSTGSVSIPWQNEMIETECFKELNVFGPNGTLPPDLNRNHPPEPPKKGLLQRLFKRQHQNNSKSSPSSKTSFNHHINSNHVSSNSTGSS
Test [3] concerns the target Protein-tyrosine kinase 6 (Homo sapiens) (UniProt Q13882). Nature of the test: Inhibition of recombinant full length human His-tagged BRK expressed in baculovirus expression system at 0.1 uM using tyrosine-1 peptide as substrate incubated for 60 mins by Z'-LYTE assay relative to control.
Test [4] addresses Tyrosine-protein kinase ITK/TSK (Homo sapiens) (UniProt Q08881). Nature of the test: Inhibition of recombinant full length human GST-tagged ITK expressed in baculovirus expression system at 0.1 uM using tyrosine-1 peptide as substrate incubated for 60 mins by Z'-LYTE assay relative to control.
Test [5] deals with Proto-oncogene tyrosine-protein kinase receptor Ret (Homo sapiens) (UniProt P07949). In words: Inhibition of recombinant human GST-tagged RET (658 to 1114 residues) expressed in baculovirus expression system at 0.1 uM using tyrosine-2 peptide as substrate incubated for 60 mins by Z'-LYTE assay relative to control.
Proto-oncogene tyrosine-protein kinase receptor Ret (Homo sapiens), sequence (P07949 whole entry, the tested form may be a part): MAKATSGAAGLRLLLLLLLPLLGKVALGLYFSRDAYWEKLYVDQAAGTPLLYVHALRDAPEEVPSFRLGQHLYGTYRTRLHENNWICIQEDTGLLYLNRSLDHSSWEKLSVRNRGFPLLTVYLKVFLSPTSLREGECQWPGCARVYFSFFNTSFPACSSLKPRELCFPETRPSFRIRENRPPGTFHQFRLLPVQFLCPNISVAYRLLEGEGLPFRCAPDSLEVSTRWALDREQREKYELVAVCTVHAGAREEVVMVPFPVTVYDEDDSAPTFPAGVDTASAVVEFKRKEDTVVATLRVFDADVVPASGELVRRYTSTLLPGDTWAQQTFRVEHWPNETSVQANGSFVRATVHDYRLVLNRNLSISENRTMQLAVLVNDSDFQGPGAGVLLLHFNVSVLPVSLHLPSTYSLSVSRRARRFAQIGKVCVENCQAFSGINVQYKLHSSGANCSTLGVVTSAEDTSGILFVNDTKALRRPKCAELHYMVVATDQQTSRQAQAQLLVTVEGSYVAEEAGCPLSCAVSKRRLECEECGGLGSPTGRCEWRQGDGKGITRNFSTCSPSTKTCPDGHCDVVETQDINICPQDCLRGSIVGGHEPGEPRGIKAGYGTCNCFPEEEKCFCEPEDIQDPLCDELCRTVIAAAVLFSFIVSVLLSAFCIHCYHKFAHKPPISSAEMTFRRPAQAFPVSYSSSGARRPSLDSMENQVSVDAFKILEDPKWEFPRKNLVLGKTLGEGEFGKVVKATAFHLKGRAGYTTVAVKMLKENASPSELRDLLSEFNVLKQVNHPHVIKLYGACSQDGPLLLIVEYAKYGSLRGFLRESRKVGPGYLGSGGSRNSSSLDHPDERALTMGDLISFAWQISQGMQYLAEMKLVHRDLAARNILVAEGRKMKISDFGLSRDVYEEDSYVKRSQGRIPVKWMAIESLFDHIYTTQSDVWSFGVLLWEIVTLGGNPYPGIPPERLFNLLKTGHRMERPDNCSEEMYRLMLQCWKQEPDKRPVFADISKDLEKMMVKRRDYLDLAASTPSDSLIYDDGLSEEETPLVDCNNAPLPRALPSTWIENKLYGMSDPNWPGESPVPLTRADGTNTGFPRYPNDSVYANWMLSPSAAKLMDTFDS
Test [6] has as its target Death-associated protein kinase 3 (Homo sapiens) (UniProt O43293). Nature of the test: Inhibition of recombinant full length human GST-tagged ZIPK expressed in baculovirus expression system at 0.1 uM using serine/threonine-13 peptide as substrate incubated for 60 mins by Z'-LYTE assay relative to control.
Test [7] has as its target Ephrin type-B receptor 1 (Homo sapiens) (UniProt P54762). Nature of the test: Inhibition of recombinant human GST-tagged EPHB1 catalytic domain (613 to 881 residues) expressed in baculovirus expression system at 0.1 uM using tyrosine-2 peptide as substrate incubated for 60 mins by Z'-LYTE assay relative to control.
Test [8] addresses Serine/threonine-protein kinase NLK (Homo sapiens) (UniProt Q9UBE8). In words: Inhibition of tracer 178 binding to recombinant full length human GST-tagged NLK expressed by baculovirus expression system at 0.1 uM measured after 60 mins by Lanthascreen assay relative to control.
In test [9] the target is 3-phosphoinositide-dependent protein kinase 1 (Homo sapiens) (UniProt O15530). Nature of the test: Inhibition of recombinant human His-tagged PDK1 expressed in baculovirus expression system at 0.1 uM using serine/threonine-7 peptide as substrate incubated for 60 mins by Z'-LYTE assay relative to control.
The target in test [10] is Serine/threonine-protein kinase Nek6 (Homo sapiens) (UniProt Q9HC98). In words: Inhibition of recombinant full length human GST-tagged NEK6 expressed in insect expression system at 0.1 uM using serine/threonine-22 peptide as substrate incubated for 60 mins by Z'-LYTE assay relative to control.
Test [11] addresses Serine/threonine-protein kinase Chk1 (Homo sapiens) (UniProt O14757). In words: Inhibition of recombinant full length human His-tagged CHK1 expressed in baculovirus expression system at 0.1 uM using serine/threonine-19 peptide as substrate incubated for 60 mins by Z'-LYTE assay relative to control.
The target of test [12] is Myotonin-protein kinase (Homo sapiens) (UniProt Q09013). In words: Inhibition of tracer 236 binding to recombinant full length human GST-tagged DMPK expressed in baculovirus expression system at 0.1 uM measured after 60 mins by Lanthascreen assay relative to control.
Myotonin-protein kinase (Homo sapiens), sequence (Q09013 whole entry): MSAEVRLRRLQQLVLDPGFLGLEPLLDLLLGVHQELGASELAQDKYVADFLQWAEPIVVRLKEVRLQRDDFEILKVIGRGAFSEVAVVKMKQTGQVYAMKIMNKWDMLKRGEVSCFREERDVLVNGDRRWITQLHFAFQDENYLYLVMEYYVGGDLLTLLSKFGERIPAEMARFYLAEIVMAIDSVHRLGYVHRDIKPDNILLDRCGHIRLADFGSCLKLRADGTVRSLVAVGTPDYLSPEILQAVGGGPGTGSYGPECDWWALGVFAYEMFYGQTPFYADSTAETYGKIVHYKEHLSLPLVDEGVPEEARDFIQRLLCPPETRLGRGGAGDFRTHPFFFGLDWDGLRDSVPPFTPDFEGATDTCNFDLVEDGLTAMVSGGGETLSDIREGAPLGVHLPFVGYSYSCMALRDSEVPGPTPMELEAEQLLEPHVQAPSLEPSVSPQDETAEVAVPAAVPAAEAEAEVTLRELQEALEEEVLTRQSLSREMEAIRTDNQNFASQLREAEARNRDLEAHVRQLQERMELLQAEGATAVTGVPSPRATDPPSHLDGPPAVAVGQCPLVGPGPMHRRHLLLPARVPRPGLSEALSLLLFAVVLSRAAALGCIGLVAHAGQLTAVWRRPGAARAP
The target of test [13] is Serine/threonine-protein kinase pim-1 (Homo sapiens) (UniProt P11309). In words: Inhibition of recombinant full length human His-tagged PIM1 expressed in baculovirus expression system at 0.1 uM using serine/threonine-7 peptide as substrate incubated for 60 mins by Z'-LYTE assay relative to control.
In test [14] the target is Testis-specific serine/threonine-protein kinase 1 (Homo sapiens) (UniProt Q9BXA7). Nature of the test: Inhibition of recombinant full length human His-tagged TSSK1 expressed in baculovirus expression system at 0.1 uM using serine/threonine-4 peptide as substrate incubated for 60 mins by Z'-LYTE assay relative to control.
The target of test [15] is Macrophage colony-stimulating factor 1 receptor (Homo sapiens) (UniProt P07333). In words: Inhibition of recombinant human His-tagged CSF1R catalytic domain (538 to 910 residues) expressed in Baculovirus expression system at 0.1 uM using tyrosine-1 peptide as substrate incubated for 60 mins by Z'-LYTE assay relative to control.
Test [16] concerns the target Dual specificity protein kinase CLK4 (Homo sapiens) (UniProt Q9HAZ1). In words: Inhibition of tracer 236 binding to recombinant full length human GST-tagged CLK4 expressed in baculovirus expression system at 0.1 uM measured after 60 mins by Lanthascreen assay relative to control.
The target in test [17] is Casein kinase I isoform delta (Homo sapiens) (UniProt P48730). Nature of the test: Inhibition of recombinant full length human GST-tagged CK1delta expressed in baculovirus expression system at 0.1 uM using serine/threonine-11 peptide as substrate incubated for 60 mins by Z'-LYTE assay relative to control.
For test [18], the target named is Serine/threonine-protein kinase PLK2 (Homo sapiens) (UniProt Q9NYY3). Nature of the test: Inhibition of recombinant full length human GST-tagged PLK2 expressed in baculovirus expression system at 0.1 uM using serine/threonine-16 peptide as substrate incubated for 60 mins by Z'-LYTE assay relative to control.
Serine/threonine-protein kinase PLK2 (Homo sapiens), sequence (Q9NYY3 whole entry, looked up): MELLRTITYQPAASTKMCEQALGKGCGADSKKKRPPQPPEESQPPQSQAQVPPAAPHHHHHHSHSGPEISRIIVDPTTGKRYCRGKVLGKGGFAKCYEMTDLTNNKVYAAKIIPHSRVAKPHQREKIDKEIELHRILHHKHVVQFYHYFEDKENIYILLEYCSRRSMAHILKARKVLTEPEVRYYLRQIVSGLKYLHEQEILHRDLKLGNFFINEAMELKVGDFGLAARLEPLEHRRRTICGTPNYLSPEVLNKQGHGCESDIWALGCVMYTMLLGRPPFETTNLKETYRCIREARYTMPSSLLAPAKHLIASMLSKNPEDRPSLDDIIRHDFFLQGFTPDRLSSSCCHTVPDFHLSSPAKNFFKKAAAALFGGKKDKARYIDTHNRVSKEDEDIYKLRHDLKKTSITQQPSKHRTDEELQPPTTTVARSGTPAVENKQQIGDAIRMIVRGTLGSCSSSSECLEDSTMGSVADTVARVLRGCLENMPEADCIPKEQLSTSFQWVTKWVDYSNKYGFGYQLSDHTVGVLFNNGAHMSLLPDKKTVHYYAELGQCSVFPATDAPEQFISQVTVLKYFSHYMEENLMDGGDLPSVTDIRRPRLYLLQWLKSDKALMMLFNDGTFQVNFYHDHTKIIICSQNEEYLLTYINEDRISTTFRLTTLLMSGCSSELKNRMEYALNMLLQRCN
Test [19] has as its target Serine/threonine-protein kinase TBK1 (Homo sapiens) (UniProt Q9UHD2). Nature of the test: Inhibition of recombinant full length human GST-tagged TBK1 expressed in insect expression system at 0.1 uM using serine/threonine-5 peptide as substrate incubated for 60 mins by Z'-LYTE assay relative to control.
In test [20] the target is Vascular endothelial growth factor receptor 2 (Homo sapiens) (UniProt P35968). Nature of the test: Inhibition of recombinant human His-tagged KDR (789 to 1356 residues) expressed in baculovirus expression system at 0.1 uM using tyrosine-1 peptide as substrate incubated for 60 mins by Z'-LYTE assay relative to control.
Test [21] concerns RAF proto-oncogene serine/threonine-protein kinase (Homo sapiens), P04049 [Y340D,Y341D]. Nature of the test: Inhibition of recombinant human GST-tagged RAF1 Y340D Y341D mutant catalytic domain (306 to 648 residues) expressed in baculovirus expression system at 0.1 uM using serine/threonine-3 peptide as substrate incubated for 60 mins by Z'-LYTE assay relative to control.
RAF proto-oncogene serine/threonine-protein kinase (Homo sapiens), P04049 [Y340D,Y341D], sequence (P04049 whole entry Y340D/Y341D, the tested form may be a part): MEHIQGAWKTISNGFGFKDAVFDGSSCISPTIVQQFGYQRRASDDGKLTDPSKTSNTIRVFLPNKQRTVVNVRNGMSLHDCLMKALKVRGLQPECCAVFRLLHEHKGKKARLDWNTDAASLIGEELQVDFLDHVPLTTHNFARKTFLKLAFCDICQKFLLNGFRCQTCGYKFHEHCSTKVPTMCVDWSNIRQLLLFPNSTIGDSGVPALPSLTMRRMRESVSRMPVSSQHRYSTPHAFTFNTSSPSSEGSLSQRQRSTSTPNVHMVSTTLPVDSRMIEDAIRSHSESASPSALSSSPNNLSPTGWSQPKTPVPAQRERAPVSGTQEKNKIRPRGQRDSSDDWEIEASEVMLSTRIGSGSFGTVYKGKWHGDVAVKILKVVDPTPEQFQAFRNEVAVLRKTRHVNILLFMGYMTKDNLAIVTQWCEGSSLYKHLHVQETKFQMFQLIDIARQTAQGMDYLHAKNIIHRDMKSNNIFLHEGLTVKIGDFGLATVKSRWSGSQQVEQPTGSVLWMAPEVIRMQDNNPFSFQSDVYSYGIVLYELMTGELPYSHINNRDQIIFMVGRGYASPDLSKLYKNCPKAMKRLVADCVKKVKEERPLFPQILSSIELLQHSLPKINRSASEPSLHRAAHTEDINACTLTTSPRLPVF
Test [22] deals with Protein kinase C delta type (Homo sapiens) (UniProt Q05655). Nature of the test: Inhibition of recombinant full length human GST-tagged PKCdelta expressed in insect expression system at 0.1 uM using serine/threonine-7 peptide as substrate incubated for 60 mins by Z'-LYTE assay relative to control.
Test [23] addresses Cyclin-dependent kinase 4/cyclin D1 (Homo sapiens) (UniProt P11802+P24385). In words: Inhibition of recombinant full length human GST-tagged CDK4/Cyclin D1 expressed in baculovirus expression system at 0.1 uM using Rb peptide as substrate incubated for 60 mins by Adapta assay relative to control.

Serine/threonine-protein kinase TBK1 (Homo sapiens), sequence (Q9UHD2 whole entry, the tested form may be a part): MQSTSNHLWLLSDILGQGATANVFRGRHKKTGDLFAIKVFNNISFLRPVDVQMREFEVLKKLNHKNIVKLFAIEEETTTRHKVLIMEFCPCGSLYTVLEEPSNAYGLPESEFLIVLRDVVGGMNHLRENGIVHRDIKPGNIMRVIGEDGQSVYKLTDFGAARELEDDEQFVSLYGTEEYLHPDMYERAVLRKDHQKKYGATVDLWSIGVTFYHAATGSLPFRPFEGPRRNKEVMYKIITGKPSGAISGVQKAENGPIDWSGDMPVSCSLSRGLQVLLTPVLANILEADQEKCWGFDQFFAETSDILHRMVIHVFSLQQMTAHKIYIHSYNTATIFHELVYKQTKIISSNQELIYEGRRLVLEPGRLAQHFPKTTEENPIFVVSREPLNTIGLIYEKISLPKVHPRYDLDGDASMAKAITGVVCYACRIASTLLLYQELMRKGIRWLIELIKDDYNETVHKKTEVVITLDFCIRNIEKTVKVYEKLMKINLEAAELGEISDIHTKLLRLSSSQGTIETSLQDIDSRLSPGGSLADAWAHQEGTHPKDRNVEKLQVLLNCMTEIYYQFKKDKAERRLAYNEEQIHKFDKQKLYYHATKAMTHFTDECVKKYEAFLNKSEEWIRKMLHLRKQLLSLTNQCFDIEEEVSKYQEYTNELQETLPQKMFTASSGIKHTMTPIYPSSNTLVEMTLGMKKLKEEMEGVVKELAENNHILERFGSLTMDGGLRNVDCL
Protein-tyrosine kinase 6 (Homo sapiens), sequence (Q13882 whole entry, looked up): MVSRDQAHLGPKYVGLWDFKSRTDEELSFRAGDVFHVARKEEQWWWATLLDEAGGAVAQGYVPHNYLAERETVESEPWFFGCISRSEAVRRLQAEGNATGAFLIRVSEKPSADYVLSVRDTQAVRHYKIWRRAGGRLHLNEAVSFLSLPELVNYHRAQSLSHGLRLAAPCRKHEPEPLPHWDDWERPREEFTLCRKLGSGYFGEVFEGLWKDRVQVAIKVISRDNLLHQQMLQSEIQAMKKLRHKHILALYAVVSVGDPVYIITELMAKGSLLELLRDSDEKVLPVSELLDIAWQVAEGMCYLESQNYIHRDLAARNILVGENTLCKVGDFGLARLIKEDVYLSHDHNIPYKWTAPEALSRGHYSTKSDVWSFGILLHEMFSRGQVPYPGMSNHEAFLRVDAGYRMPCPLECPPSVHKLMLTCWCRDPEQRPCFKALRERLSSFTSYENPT

A word on the inhibition: it is the change of the read-out against control, counted positive when it falls. Regarding `CCN1CC2(C1)CN(c1ccc(Nc3ncc(F)c(-c4cnn5c4[C@H](C)CCCC5)n3)nc1)C2`, the inhibition in test [1] was 41.5%; in test [2], 3%; in test [3], 6.5%; in [4], 6%; in [5] it was 13.5%; in test [6] it was 6%. The inhibition was 8% in [7]; 22.5% in [8]; 8.5% in test [9]; 3.5% in test [10]; 9% in test [11]; 46% in [12]. For the same compound, the inhibition in test [13] was 11.5%; in test [14] it was 67.5%; in test [15], 88%; in test [16], 95%; in test [17], 5%; in test [18], 3%. The inhibition in test [19] is 8%; in [20], 17.5%; in test [21] it was -0.5%; in [22] it was 23.5%; in test [23] it was 94%.

On to `CCN1CCN(Cc2ccc(Nc3ncc(F)c(-c4cc(F)c5nc(C)n(C(C)C)c5c4)n3)nc2)CC1` [ABEMACICLIB], for which the inhibition amounted to 56% in test [1]; 2% in test [2]; 5% in test [3]; 0.5% in [4]; 5.5% in test [5]; 54.5% in [6]. Besides, the inhibition is 0.5% in test [7]; 2.2% in [8]; 1% in [9]; 3.5% in test [10]; -4.5% in test [11]; 76.9% in test [12]. The inhibition was 95% in test [13]; 21.5% in [14]; 41.4% in [15]; 97.7% in test [16]; 10.5% in [17]; 0.5% in test [18]. The inhibition in [19] is 43%; in [20] it was 4.5%; in test [21], 0%; in test [22] it was 48.5%; in [23], 87%.
